The results in this text go back to ChEMBL document CHEMBL1142952, “Design, synthesis, and activity of 2-imidazol-1-ylpyrimidine derived inducible nitric oxide synthase dimerization inhibitors” (J Med Chem, 2007).

Assay [1] has as its target Nitric oxide synthase, inducible (Rattus norvegicus) (UniProt Q06518). Nature of the assay: Activity against rat cerebellum iNOS upto 1 uM.
Assay [2] is described as follows: Inhibition of vaccinia virus system-induced human NOS expressed in BSC1 cells. It counts as cell-based. Conditions: bsc-1.
In assay [3] the target is Nitric oxide synthase, inducible (Homo sapiens, UniProt P35228). Nature of the assay: Inhibition of cytokine-induced iNOS expressed in human A172 cells assessed as inhibition of NO formation. The assay is classed as cell-based, A 172.

SMILES strings stand for the structures. Calls of active or inactive are those of the source. The rule behind the calls is not given here.

Nitric oxide synthase, inducible (Rattus norvegicus), sequence (Q06518 whole entry): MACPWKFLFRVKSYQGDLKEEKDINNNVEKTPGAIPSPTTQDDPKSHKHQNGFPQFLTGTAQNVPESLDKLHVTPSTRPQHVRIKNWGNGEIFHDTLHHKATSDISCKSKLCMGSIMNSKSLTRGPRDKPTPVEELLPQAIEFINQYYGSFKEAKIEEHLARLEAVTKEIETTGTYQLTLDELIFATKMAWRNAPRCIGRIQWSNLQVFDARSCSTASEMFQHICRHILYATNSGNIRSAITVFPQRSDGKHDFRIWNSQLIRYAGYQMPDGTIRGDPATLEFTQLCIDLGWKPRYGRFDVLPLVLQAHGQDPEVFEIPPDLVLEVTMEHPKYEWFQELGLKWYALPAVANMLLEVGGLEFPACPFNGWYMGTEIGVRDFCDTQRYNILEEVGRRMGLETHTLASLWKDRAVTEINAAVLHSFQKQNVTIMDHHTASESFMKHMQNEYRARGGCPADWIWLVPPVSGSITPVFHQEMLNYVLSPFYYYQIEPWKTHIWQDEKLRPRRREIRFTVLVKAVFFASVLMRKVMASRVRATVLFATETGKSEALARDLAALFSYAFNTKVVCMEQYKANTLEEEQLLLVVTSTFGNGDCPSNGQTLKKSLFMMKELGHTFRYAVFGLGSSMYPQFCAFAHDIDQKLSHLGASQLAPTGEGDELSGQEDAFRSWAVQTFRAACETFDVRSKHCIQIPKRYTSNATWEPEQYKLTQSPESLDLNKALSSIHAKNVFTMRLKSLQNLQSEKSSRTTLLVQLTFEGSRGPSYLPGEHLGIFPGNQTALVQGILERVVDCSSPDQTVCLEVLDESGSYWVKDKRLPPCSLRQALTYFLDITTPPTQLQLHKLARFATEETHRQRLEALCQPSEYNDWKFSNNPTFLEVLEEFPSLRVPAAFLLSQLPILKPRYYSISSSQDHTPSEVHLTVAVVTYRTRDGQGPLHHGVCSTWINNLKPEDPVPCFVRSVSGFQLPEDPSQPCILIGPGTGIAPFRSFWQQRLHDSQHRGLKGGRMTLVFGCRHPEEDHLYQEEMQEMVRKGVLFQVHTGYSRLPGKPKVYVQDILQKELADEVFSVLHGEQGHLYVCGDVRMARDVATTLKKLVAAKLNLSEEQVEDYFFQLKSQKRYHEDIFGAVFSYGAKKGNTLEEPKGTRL
Nitric oxide synthase, inducible, sequence (P35228 whole entry): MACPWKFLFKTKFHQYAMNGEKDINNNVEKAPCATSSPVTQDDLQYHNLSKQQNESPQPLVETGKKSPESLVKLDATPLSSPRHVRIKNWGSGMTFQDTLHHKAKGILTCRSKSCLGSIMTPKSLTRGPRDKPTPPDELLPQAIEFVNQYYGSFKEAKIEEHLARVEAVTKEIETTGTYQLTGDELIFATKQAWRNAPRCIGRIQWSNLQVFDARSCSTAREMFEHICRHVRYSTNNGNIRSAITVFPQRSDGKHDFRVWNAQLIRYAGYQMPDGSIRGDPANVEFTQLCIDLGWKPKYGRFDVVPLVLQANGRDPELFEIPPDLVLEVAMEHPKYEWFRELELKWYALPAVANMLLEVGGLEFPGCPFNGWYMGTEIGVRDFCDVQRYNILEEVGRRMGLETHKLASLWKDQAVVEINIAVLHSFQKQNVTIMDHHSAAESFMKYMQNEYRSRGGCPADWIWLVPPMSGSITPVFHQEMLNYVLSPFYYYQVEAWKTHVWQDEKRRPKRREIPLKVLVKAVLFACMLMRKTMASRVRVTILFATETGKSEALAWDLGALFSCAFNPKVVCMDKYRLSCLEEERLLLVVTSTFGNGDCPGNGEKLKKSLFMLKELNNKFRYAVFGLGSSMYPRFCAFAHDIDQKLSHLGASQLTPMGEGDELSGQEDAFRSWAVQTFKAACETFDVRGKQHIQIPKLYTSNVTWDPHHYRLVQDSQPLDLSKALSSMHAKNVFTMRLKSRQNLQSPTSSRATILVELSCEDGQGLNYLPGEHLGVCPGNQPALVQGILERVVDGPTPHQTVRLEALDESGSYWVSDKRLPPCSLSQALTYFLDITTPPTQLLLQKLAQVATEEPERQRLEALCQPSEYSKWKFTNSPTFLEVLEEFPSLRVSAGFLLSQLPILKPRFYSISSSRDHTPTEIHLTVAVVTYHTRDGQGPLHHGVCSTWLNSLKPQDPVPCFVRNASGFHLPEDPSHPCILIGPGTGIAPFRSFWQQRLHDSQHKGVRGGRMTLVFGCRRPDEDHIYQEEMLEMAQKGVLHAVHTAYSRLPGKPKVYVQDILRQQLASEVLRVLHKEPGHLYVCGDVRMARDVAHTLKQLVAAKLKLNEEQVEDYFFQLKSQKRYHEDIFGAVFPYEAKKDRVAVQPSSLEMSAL

For `NS(=O)(=O)c1ccc(CNC(=O)CC2CCCCN2c2ccnc(-n3ccnc3)n2)cc1` (centres undefined), the outcome in assay [1] was inactive. In assay [2], the IC50 was more than 330 nM. For the compound `Cc1cc(N2CCN(S(C)(=O)=O)C(CC(=O)NCc3ccc4c(c3)OCO4)C2)nc(-n2ccnc2)n1` (centres undefined), the results for the half-maximal inhibitory concentration (IC50) in assay [3] and in assay [2] were 12 nM and more than 1000 nM, respectively. Besides, the outcome in assay [1] was inactive. In the case of `CN(C)c1cccc2c(S(=O)(=O)N3CCN(c4ccnc(-n5ccnc5)n4)C(CC(=O)NCc4ccc5c(c4)OCO5)C3)cccc12` (centres undefined), in assay [3], the half-inhibitory concentration (IC50) amounted to 1.1 nM. Also, the result in assay [1] was inactive. Consider `COc1ccc(CNC(=O)CC2CCCCN2c2ccnc(-n3ccnc3)n2)cc1` (centres undefined), for which, in assay [1], the outcome was inactive. Besides, the IC50 in assay [2] is 23 nM. On to `O=C(CC1CCCCN1c1ccnc(-n2ccnc2)n1)Nc1ccc2c(c1)OCO2` (centres undefined), for which the half-inhibitory concentration (IC50) in assay [3] was more than 100 nM. Further, in assay [1], the outcome was inactive. On the same counts, the results for `Cc1cc(N2CCC[C@H]2C(=O)NCCc2ccc3c(c2)OCO3)nc(-n2ccnc2)n1` are 6400 nM and “inactive”.

In the case of `COc1ccc(NC(=O)CC2CCCCN2c2ccnc(-n3ccnc3)n2)cc1OC` (centres undefined), in assay [1], the outcome was inactive. Further, the IC50 in assay [2] came out at 1800 nM. For `O=C(CC1CCCCN1c1ccnc(-n2ccnc2)n1)NCc1ccc(Cl)cc1` (centres undefined), in that order: “inactive” and 160 nM.

For `COc1ccc(CNC(=O)CC2CCCCN2c2ccnc(-n3ccnc3)n2)cc1OC` (centres undefined), in assay [1], the outcome was inactive. This compound also gave a half-inhibitory concentration (IC50) in assay [2] of 110 nM. For `O=C(CC1CCCCN1c1ccnc(-n2ccnc2)n1)NCc1ccccc1` (centres undefined), in that order: “inactive” and 440 nM.

Take `O=C(CC1CCCCN1c1cccc(-n2ccnc2)c1)NCc1ccc2c(c1)OCO2` (centres undefined): the half-inhibitory concentration (IC50) in assay [3] came to 77 nM. In assay [1], the outcome was inactive. Regarding `O=C(CC1COCCN1c1ccnc(-n2ccnc2)n1)NCc1ccc2c(c1)OCO2` (centres undefined), in assay [3], the half-maximal inhibitory concentration (IC50) was 0.5 nM. Also, in assay [1], the result was inactive.

For the compound `CS(=O)(=O)Nc1ccc(CNC(=O)CC2CCCCN2c2ccnc(-n3ccnc3)n2)cc1` (centres undefined), the outcome in assay [1] was inactive. This compound gave a 50% inhibitory concentration (IC50) in assay [2] of more than 1000 nM. For `CNC(=O)CC1CCCCN1c1ccnc(-n2ccnc2)n1` (centres undefined), in assay [3], the half-inhibitory concentration (IC50) was more than 100 nM. Further, in assay [1], the result was inactive. `COc1ccccc1CNC(=O)CC1CCCCN1c1ccnc(-n2ccnc2)n1` (centres undefined): the outcome in assay [1] was inactive. In addition, the IC50 in assay [2] stood at 500 nM.

Regarding `Cc1cc(N2CCN(C(=O)C(C)C)[C@@H](CC(=O)NCc3ccc4c(c3)OCO4)C2)nc(-n2ccnc2)n1`, the IC50 in assay [3] was 300 nM; in assay [2], more than 1000 nM. In addition, the result in assay [1] was inactive. With `O=C(CC1CCCCN1c1ccnc(-n2ccnc2)n1)NCc1ccccn1` (centres undefined), the result in assay [1] was inactive. With `Cc1ccc(CNC(=O)CC2CCCCN2c2ccnc(-n3ccnc3)n2)cc1` (centres undefined), the result in assay [1] was inactive. This compound also yielded a half-maximal inhibitory concentration (IC50) in assay [2] of 274 nM. As to `O=C(CC1CCCCN1c1ccnc(-n2ccnc2)n1)NC(c1ccccc1)c1ccccc1` (centres undefined), the result in assay [1] was inactive.

For the compound `O=C(CC1CCCCCN1c1ccnc(-n2ccnc2)n1)NCc1ccc2c(c1)OCO2` (centres undefined), in assay [3], the IC50 came out at 2 nM. Also, the outcome in assay [1] was inactive.

`CN(Cc1ccccc1)C(=O)CC1CCCCN1c1ccnc(-n2ccnc2)n1` (centres undefined): the result in assay [1] was inactive. As to `Nc1ccc(CNC(=O)CC2CCCCN2c2ccnc(-n3ccnc3)n2)cc1` (centres undefined), the outcome in assay [1] was inactive. In assay [2], this compound showed a half-inhibitory concentration (IC50) of 850 nM. Turning to `CS(=O)(=O)c1ccc(CNC(=O)CC2CCCCN2c2ccnc(-n3ccnc3)n2)cc1` (centres undefined), in assay [1], the result was inactive. The same compound had an IC50 in assay [2] of 940 nM. Take `COc1cc(CNC(=O)CC2CCCCN2c2ccnc(-n3ccnc3)n2)cc(OC)c1OC` (centres undefined): in assay [3], the half-inhibitory concentration (IC50) was more than 100 nM. Besides, in assay [1], the outcome was inactive. On to `N#Cc1ccc(CNC(=O)CC2CCCCN2c2ccnc(-n3ccnc3)n2)cc1` (centres undefined), for which the result in assay [1] was inactive. Moreover, the IC50 in assay [2] is more than 1000 nM.
